Measurements taken from the supplement of paper PMC10307832.

Key:
Assay in all cases: relative viability (nuclei count vs DMSO), 5 days (fraction); higher = more cells survive
IPA-3 + Decitabine = compound: C1=CC=C2C(=C1)C=CC(=C2SSC3=C(C=CC4=CC=CC=C43)O)O [IPA-3] + Nc1ncn([C@H]2C[C@H](O)[C@@H](CO)O2)c(=O)n1 [Decitabine] (partner 2 µM)
Procedure, shortened: (§1)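 Lung cancer cell lines in 1536-well plates got either a single drug or a fixed anchor-drug dose together with five library-drug doses (not always all listed) in √10 steps, by pin tool, on the day after seeding. Nuclei were counted after 5 days, and relative viability is the treated-to-vehicle ratio of nuclei counts. Values are medians of duplicate plates.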

IPA-3 + Linsitinib = compound: C1=CC=C2C(=C1)C=CC(=C2SSC3=C(C=CC4=CC=CC=C43)O)O [IPA-3] + C[C@]1(O)C[C@@H](c2nc(-c3ccc4ccc(-c5ccccc5)nc4c3)c3c(N)nccn32)C1 [Linsitinib] (partner 1 µM)
Procedure, shortened: as §1

RAF265 + Bortezomib = compound: Cn1c(Nc2ccc(C(F)(F)F)cc2)nc2cc(Oc3ccnc(-c4ncc(C(F)(F)F)[nH]4)c3)ccc21 [RAF265] + CC(C)C[C@H](NC(=O)[C@H](Cc1ccccc1)NC(=O)c1cnccn1)B(O)O [Bortezomib] (partner 0.002 µM)
Procedure, shortened: as §1

IPA-3 + Crizotinib = compound: C1=CC=C2C(=C1)C=CC(=C2SSC3=C(C=CC4=CC=CC=C43)O)O [IPA-3] + C[C@@H](Oc1cc(-c2cnn(C3CCNCC3)c2)cnc1N)c1c(Cl)ccc(F)c1Cl [Crizotinib] (partner 1 µM)
Procedure, shortened: as §1

Row | Cell Line | relative viability (IPA-3 + Decitabine; first compound 0.2 µM) | relative viability (IPA-3 + Decitabine; first compound 0.6325 µM) | relative viability (IPA-3 + Decitabine; first compound 2 µM) | relative viability (IPA-3 + Decitabine; first compound 6.325 µM) | relative viability (IPA-3 + Decitabine; first compound 20 µM) | relative viability (IPA-3 + Linsitinib; first compound 0.2 µM) | relative viability (IPA-3 + Linsitinib; first compound 0.6325 µM) | relative viability (IPA-3 + Linsitinib; first compound 2 µM) | relative viability (IPA-3 + Linsitinib; first compound 6.325 µM) | relative viability (IPA-3 + Linsitinib; first compound 20 µM) | relative viability (RAF265 + Bortezomib; first compound 0.01 µM) | relative viability (RAF265 + Bortezomib; first compound 0.03162 µM) | relative viability (RAF265 + Bortezomib; first compound 0.1 µM) | relative viability (RAF265 + Bortezomib; first compound 0.3162 µM) | relative viability (RAF265 + Bortezomib; first compound 1 µM) | relative viability (IPA-3 + Crizotinib; first compound 0.2 µM) | relative viability (IPA-3 + Crizotinib; first compound 0.6325 µM) | relative viability (IPA-3 + Crizotinib; first compound 2 µM) | relative viability (IPA-3 + Crizotinib; first compound 6.325 µM) | relative viability (IPA-3 + Crizotinib; first compound 20 µM)
1 | 201T | 0.888 | 0.861 | 0.839 | 0.868 | 0.947 | 0.986 | 0.992 | 1.04 | 1.04 | 1.09 | 1.08 | 1.1 | 1.07 | 1.11 | 1.1 | 1.04 | 1.01 | 1.05 | 1.03 | 1.04
2 | A549 | 0.379 | 0.278 | 0.128 | 0.274 | 0.179 | 0.653 | 0.582 | 0.683 | 0.591 | 0.775 |  |  |  |  |  | 0.886 | 0.76 | 0.745 | 0.819 | 0.89
3 | A-427 | 0.571 | 0.576 | 0.547 | 0.544 | 0.63 | 1.13 | 0.951 | 1.18 | 1.12 | 1.13 | 0.98 | 0.867 | 1 | 1.1 | 0.494 | 1.11 | 0.775 | 0.896 | 0.91 | 1.12
4 | ABC-1 | 1.35 | 1.02 | 1.33 | 0.99 | 1.26 | 0.862 | 0.752 |  | 0.715 | 1.06 | 0.308 | 0.321 | 0.278 | 0.284 | 0.303 | 1.12 | 1.17 |  | 0.981 | 1.06
5 | BEN | 0.612 | 0.824 | 0.758 | 0.712 | 0.665 | 0.986 | 1.01 | 0.974 | 1.05 | 1.18 | 0.993 | 0.878 | 0.777 | 0.85 | 0.547 | 1.01 | 0.905 | 0.98 | 0.788 | 0.961
6 | CAL-12T |  |  |  |  |  | 0.93 | 0.715 | 0.914 | 0.79 | 0.935 | 1.06 | 0.834 | 0.836 | 0.476 | 0.64 | 0.479 | 0.6 | 0.699 | 0.516 | 0.69
7 | COR-L23 | 0.553 | 0.469 | 0.41 | 0.419 | 0.256 | 1.13 | 0.837 | 0.92 | 0.797 | 0.819 | 1.05 | 0.87 | 0.964 | 0.706 | 0.511 | 0.695 | 0.699 | 0.682 | 0.604 | 0.601
8 | COR-L 105 | 0.652 | 0.609 | 0.657 | 0.66 | 0.649 | 1.07 | 0.98 | 0.843 | 0.542 | 0.962 | 0.902 | 0.771 | 0.647 | 0.442 | 0.56 | 0.954 | 0.757 | 0.704 | 0.788 | 0.964
9 | Calu-6 |  |  |  |  |  | 1.14 | 0.937 | 0.878 | 0.952 | 0.958 | 0.919 | 0.819 | 0.834 | 0.473 | 0.368 | 1.06 | 0.75 | 0.81 | 0.795 | 0.966
10 | ChaGo-K-1 | 0.536 | 0.479 | 0.503 | 0.509 | 0.487 |  |  |  |  |  | 0.92 | 1.08 | 1.12 | 1.03 | 0.662 | 1.32 | 1.08 | 1.17 | 1.09 | 1.23
11 | EBC-1 |  |  |  |  |  | 1.12 | 0.729 | 0.911 | 0.841 | 0.871 | 0.48 | 0.464 | 0.521 | 0.482 | 0.489 | 0.188 | 0.186 | 0.168 | 0.195 | 0.193
12 | EKVX | 0.342 | 0.396 | 0.26 | 0.297 | 0.332 | 1.1 | 1.06 | 1.05 | 0.97 | 1.43 | 0.99 | 0.995 | 1.04 | 0.513 | 0.763 | 1.24 | 0.965 | 0.951 | 0.799 | 1.22
13 | EMC-BAC-2 | 1.02 | 0.967 | 0.958 | 0.819 | 1.07 | 0.855 | 0.808 | 0.884 | 0.804 | 0.907 | 1.07 | 1 | 1.08 | 1.05 | 0.351 | 0.79 | 0.769 | 0.771 | 0.698 | 0.829
14 | EPLC-272H | 0.406 | 0.397 | 0.325 | 0.38 | 0.397 | 1.16 | 1.13 | 1.22 | 1.14 | 1.41 | 0.973 | 0.956 | 0.818 | 0.808 | 0.392 | 1.16 | 0.808 | 0.995 | 0.912 | 1.23
15 | H3255 | 0.634 | 0.571 | 0.577 | 0.548 | 0.632 | 1.09 | 0.874 | 0.932 | 0.963 | 1.11 | 0.901 | 0.776 | 1.06 |  | 0.696 | 1.11 | 0.86 | 0.962 | 0.749 | 1.03
